Measurements: article PMC9492542, “Brain-restricted mTOR inhibition with binary pharmacology” (Nature, 2022)
Where “and” joins values, the source holds several entries; their conditions need not be identical. Identical values can stand only once.

Experiments:
NFAT = NFAT activation assay (Jurkat-Lucia NFAT luciferase reporter, PMA/ionomycin); type: cell-based
Procedure: Jurkat-Lucia NFAT cells were resuspended to 2 × 10^6 cells per ml in fresh growth medium and dispensed in 96-well tissue culture plates (Corning 3904; 180 µl per well). DMSO solutions of test compounds at 100× the test concentrations were added and the cells were incubated for 4 h at 37 °C. A 10× stimulation solution containing phorbol myristate acetate (100 ng ml^–1) and ionomycin (10 µg ml^–1) were added to each well (20 µl per well) except for the negative control wells, which were supplemented with 20 µl medium. Cells were incubated at 37 °C for 12 h. Cells (20 µl per well) were transferred into a white opaque 96-well plate (Corning 3912). TECAN Spark 20M plate reader equipped with an auto-injection system was primed with Lucia luciferase substrate solution and set with the following parameters: 50 µl of injection volume, end-point measurement with a 4-s delay time and 0.1-s integration time. Luciferase activity was measured with the settings above and normalized to DMSO-treated, stimulated cells. Data were plotted in GraphPad Prism 9.0.

FKBP12 = biological target: T1, FKBP12 (Homo sapiens, UniProt P62942); assay: Competition fluorescence polarization assay with FITC-rapamycin tracer; type: binding
T1 construct: His-tag (HRV 3C cleavable) (cleaved yes); made in house; host or cells: Escherichia coli BL21(DE3)
T1 sequence (P62942 whole entry): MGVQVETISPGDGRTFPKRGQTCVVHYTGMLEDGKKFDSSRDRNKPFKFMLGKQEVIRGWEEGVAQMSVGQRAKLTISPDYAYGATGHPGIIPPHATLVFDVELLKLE

Which “NFAT luciferase activity, normalized to DMSO-treated stimulated cells” value (“NFAT luciferase activity, normalized” below) (NFAT; 0.00512 nM) does the source give for C=CC[C@@H]1/C=C(\C)C[C@H](C)C[C@H](OC)[C@H]2O[C@@](O)(C(=O)C(=O)N3CCCC[C@H]3C(=O)O[C@H](/C(C)=C/[C@@H]3CC[C@@H](O)[C@H](OC)C3)[C@H](C)[C@@H](O)CC1=O)[C@H](C)C[C@@H]2OC [FK506] here?
The value was 103.4 and 90.3 and 99.2.

And the “NFAT luciferase activity, normalized” value (NFAT; 0.0256 nM)?
Its value is 93.6 and 87.2 and 91.4.

And the “NFAT luciferase activity, normalized” value (NFAT; 0.128 nM)?
Its value is 35.5 and 35.2 and 38.5.

And the “NFAT luciferase activity, normalized” value (NFAT; 0.64 nM)?
Its value is 0.2.

And the “NFAT luciferase activity, normalized” value (NFAT; 16 nM)?
Its value is 0.1.

And the “NFAT luciferase activity, normalized” value (NFAT; 80 nM)?
The value was 0.1 and 0.2.

What about the “NFAT luciferase activity, normalized” value (NFAT; 400 nM) of the same molecule?
The value was 0.1 and 0.2.

What about the “NFAT luciferase activity, normalized” value (NFAT; 2000 nM) of the same molecule?
Its value is 0.2.

And the “NFAT luciferase activity, normalized” value (NFAT; 10000 nM)?
Its value is 0.2.

And the IC50 (NFAT; Homo sapiens, Jurkat NFAT luciferase, PMA + ionomycin)?
Its IC50 is 94 ± 8 pM.

What about the “fluorescence polarization (competition, raw)” value (from here on “fluorescence polarization”) (FKBP12; 0.0976562 nM compound) of the same molecule?
The value was 108.

And the “fluorescence polarization” value (FKBP12; 0.195312 nM compound)?
The value was 110 and 109.

What about the “fluorescence polarization” value (FKBP12; 0.390625 nM compound) of the same molecule?
Its value is 108.

What about the “fluorescence polarization” value (FKBP12; 0.78125 nM compound) of the same molecule?
Its value is 107 and 103.

What about the “fluorescence polarization” value (FKBP12; 1.5625 nM compound) of the same molecule?
Its value is 104 and 103.

And the “fluorescence polarization” value (FKBP12; 3.125 nM compound)?
Its value is 92 and 96.

And the “fluorescence polarization” value (FKBP12; 6.25 nM compound)?
Its value is 75 and 72.

What about the “fluorescence polarization” value (FKBP12; 12.5 nM compound) of the same molecule?
The value was 66 and 60.

And the “fluorescence polarization” value (FKBP12; 25 nM compound)?
Its value is 57 and 55.

What about the “fluorescence polarization” value (FKBP12; 50 nM compound) of the same molecule?
Its value is 53 and 55.

What about the “fluorescence polarization” value (FKBP12; 100 nM compound) of the same molecule?
The value was 46 and 51.
